Laboratory results: ChEMBL document CHEMBL1201862, “PubChem BioAssay data set” (2004)
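How tested: cells in 96-well plates exposed to compound for 48 hours at five concentrations. Here, GI50 denotes the concentration required for 50% inhibition of growth.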 The source made the active and inactive calls. No stated cut-off is given here; in the data, active = GI50 up to about 1.1 µM and inactive = higher. *1 amine or outer side, *2 acyl side, *3 side chain or, on linkers, in order; H or OH if unused. Where a SMILES comes first, the peptide text is derived from it. Bridges are numbered along the chain shown (N, C = ends). [ ]: non-standard residue; d: D form. The star is where a group is joined. X56 = CC(C)C(C)C(C(=O)[*:2])N(C)[*:1]; Picolinoyl(3-OH) = O=C(c1ncccc1O)*; NMePhg = CN[CH](C(=O)O)c1ccccc1; Hyp = O=C(O)[CH]1C[CH](O)CN1; Sar = CNCC(=O)O

Tests used:
Experiment in all cases: NCI-60 cell line screen, 48 h
OVCAR-8 = tested on: OVCAR-8
SW-620 = tested on: SW-620
HT-29 = tested on: HT-29
SNB-19 = tested on: SNB-19
COLO 205 = tested on: COLO 205
HL-60 = tested on: HL-60
CCRF-CEM = tested on: CCRF-CEM
UO-31 = tested on: UO-31
KM12 = tested on: KM12
OVCAR-3 = tested on: OVCAR-3
SNB-75 = tested on: SNB-75
CAKI-1 = tested on: CAKI-1
SK-MEL-5 = tested on: SK-MEL-5
SK-OV-3 = tested on: SK-OV-3
K562 = tested on: K562
LOX IMVI = tested on: LOX IMVI
NCI-H522 = tested on: NCI-H522
U-251 = tested on: U-251
A549 = tested on: A549

CC(C)CC1NC(=O)C(NC(=O)c2ncccc2O)C(C)OC(=O)C(c2ccccc2)N(C)C(=O)C(C)NC(=O)C(C(C)C(C)C)N(C)C(=O)CN(C)C(=O)C2CC(O)CN2C1=O (stereo not drawn) ({Picolinoyl(3-OH)}-TL[Hyp][Sar][X56]A[NMePhg]; ester 1-C; configuration not given here)
GI50 (OVCAR-8): 15.7 µM (inactive) | GI50 (SW-620): 32.7 µM (inactive) | GI50 (HT-29): 37.6 µM (inactive) | GI50 (SNB-19): 115 µM (inactive) | GI50 (COLO 205): 80.2 µM (inactive) | GI50 (HL-60): 58.9 µM (inactive) | GI50 (CCRF-CEM): 60.5 µM (inactive) | GI50 (UO-31): > 85.5 µM (inactive) | GI50 (KM12): 80.4 µM (inactive) | GI50 (OVCAR-3): 104 µM (inactive) | GI50 (SNB-75): 36.7 µM (inactive) | GI50 (CAKI-1): 89.1 µM (inactive) | GI50 (SK-MEL-5): 24.3 µM (inactive) | GI50 (SK-OV-3): > 125 µM (inactive) | GI50 (K562): 61.8 µM (inactive) | GI50 (LOX IMVI): > 125 µM (inactive) | GI50 (NCI-H522): 124 µM (inactive) | GI50 (U-251): 40.8 µM (inactive) | GI50 (A549): 52.6 µM (inactive)

CCCCC#CS(=O)(=O)C(F)(F)F
GI50 (OVCAR-8): 97.1 µM (inactive) | GI50 (SW-620): > 100 µM (inactive) | GI50 (HT-29): 22.4 µM (inactive) | GI50 (SNB-19): > 90.2 µM (inactive) | GI50 (COLO 205): > 75.7 µM (inactive) | GI50 (HL-60): 23.2 µM (inactive) | GI50 (CCRF-CEM): 48.6 µM (inactive) | GI50 (UO-31): 68.9 µM (inactive) | GI50 (KM12): > 83.9 µM (inactive) | GI50 (OVCAR-3): > 56.4 µM (inactive) | GI50 (SNB-75): 36.6 µM (inactive) | GI50 (CAKI-1): 0.605 µM (active) | GI50 (SK-MEL-5): 52.7 µM (inactive) | GI50 (SK-OV-3): > 94.2 µM (inactive) | GI50 (K562): 45.4 µM (inactive) | GI50 (LOX IMVI): 60.7 µM (inactive) | GI50 (NCI-H522): 36.1 µM (inactive) | GI50 (U-251): 76.6 µM (inactive) | GI50 (A549): > 78.9 µM (inactive)

CCN(CC)Cc1sc2nc3ccccc3n2c1-c1ccc(OC)cc1
GI50 (OVCAR-8): 36.9 µM (inactive) | GI50 (SW-620): 29 µM (inactive) | GI50 (HT-29): 18.5 µM (inactive) | GI50 (SNB-19): 27.1 µM (inactive) | GI50 (COLO 205): 21.5 µM (inactive) | GI50 (HL-60): 20.9 µM (inactive) | GI50 (CCRF-CEM): 17.1 µM (inactive) | GI50 (UO-31): 5.28 µM (inactive) | GI50 (KM12): 20.6 µM (inactive) | GI50 (OVCAR-3): 21.3 µM (inactive) | GI50 (SNB-75): 33.8 µM (inactive) | GI50 (CAKI-1): 38.8 µM (inactive) | GI50 (SK-OV-3): 27 µM (inactive) | GI50 (K562): 3.22 µM (inactive) | GI50 (LOX IMVI): 28.3 µM (inactive) | GI50 (NCI-H522): 4.11 µM (inactive) | GI50 (U-251): 29.2 µM (inactive) | GI50 (A549): 31.8 µM (inactive)

CN(C)c1ccc(/C=C/C(=O)C(C)(C)C)cc1Br
GI50 (OVCAR-8): 21.8 µM (inactive) | GI50 (SW-620): 27.7 µM (inactive) | GI50 (HT-29): 31.8 µM (inactive) | GI50 (SNB-19): 31.6 µM (inactive) | GI50 (COLO 205): 25.7 µM (inactive) | GI50 (CCRF-CEM): 24.6 µM (inactive) | GI50 (UO-31): 32.1 µM (inactive) | GI50 (KM12): 24.1 µM (inactive) | GI50 (OVCAR-3): 33.3 µM (inactive) | GI50 (SNB-75): 20.1 µM (inactive) | GI50 (CAKI-1): 23.9 µM (inactive) | GI50 (SK-MEL-5): 18.7 µM (inactive) | GI50 (SK-OV-3): 52.1 µM (inactive) | GI50 (K562): 25.2 µM (inactive) | GI50 (NCI-H522): 16.1 µM (inactive) | GI50 (U-251): 27.4 µM (inactive) | GI50 (A549): 39.9 µM (inactive)

COC(=O)[C@@H](Nc1ccccc1)[C@@]1(C(=O)OC)SC12c1ccccc1-c1ccccc12
GI50 (OVCAR-8): 63 µM (inactive) | GI50 (SW-620): 38.3 µM (inactive) | GI50 (HT-29): 34.3 µM (inactive) | GI50 (SNB-19): > 100 µM (inactive) | GI50 (COLO 205): > 100 µM (inactive) | GI50 (HL-60): > 100 µM (inactive) | GI50 (CCRF-CEM): 39.4 µM (inactive) | GI50 (UO-31): 42.3 µM (inactive) | GI50 (KM12): > 100 µM (inactive) | GI50 (OVCAR-3): 43.2 µM (inactive) | GI50 (CAKI-1): > 100 µM (inactive) | GI50 (SK-MEL-5): 41.4 µM (inactive) | GI50 (K562): 56.4 µM (inactive) | GI50 (LOX IMVI): 32.7 µM (inactive) | GI50 (NCI-H522): 22 µM (inactive) | GI50 (U-251): 44.1 µM (inactive) | GI50 (A549): 44.8 µM (inactive)

NC(Cc1cccc([N+](=O)[O-])c1)C(=O)O (stereo not drawn)
GI50 (OVCAR-8): > 100 µM (inactive) | GI50 (SW-620): > 100 µM (inactive) | GI50 (HT-29): > 100 µM (inactive) | GI50 (SNB-19): > 100 µM (inactive) | GI50 (COLO 205): > 100 µM (inactive) | GI50 (HL-60): > 100 µM (inactive) | GI50 (CCRF-CEM): > 100 µM (inactive) | GI50 (UO-31): > 100 µM (inactive) | GI50 (KM12): > 100 µM (inactive) | GI50 (OVCAR-3): > 100 µM (inactive) | GI50 (CAKI-1): > 100 µM (inactive) | GI50 (SK-MEL-5): > 100 µM (inactive) | GI50 (SK-OV-3): > 100 µM (inactive) | GI50 (K562): > 100 µM (inactive) | GI50 (LOX IMVI): > 100 µM (inactive) | GI50 (NCI-H522): > 100 µM (inactive) | GI50 (U-251): > 100 µM (inactive) | GI50 (A549): > 100 µM (inactive)

O=c1[nH]nc(Cc2ccccc2)n1/N=C/c1ccc([N+](=O)[O-])cc1
GI50 (OVCAR-8): > 100 µM (inactive) | GI50 (SW-620): > 100 µM (inactive) | GI50 (HT-29): > 100 µM (inactive) | GI50 (COLO 205): > 100 µM (inactive) | GI50 (HL-60): > 100 µM (inactive) | GI50 (CCRF-CEM): > 100 µM (inactive) | GI50 (UO-31): > 100 µM (inactive) | GI50 (KM12): > 100 µM (inactive) | GI50 (OVCAR-3): > 100 µM (inactive) | GI50 (SNB-75): 42 µM (inactive) | GI50 (CAKI-1): > 100 µM (inactive) | GI50 (SK-MEL-5): > 100 µM (inactive) | GI50 (K562): > 100 µM (inactive) | GI50 (LOX IMVI): > 100 µM (inactive) | GI50 (NCI-H522): > 100 µM (inactive) | GI50 (U-251): > 100 µM (inactive) | GI50 (A549): > 100 µM (inactive)

C=CCCC(=O)CC(=O)OCc1ccccc1
GI50 (OVCAR-8): > 100 µM (inactive) | GI50 (SW-620): > 100 µM (inactive) | GI50 (HT-29): > 100 µM (inactive) | GI50 (SNB-19): > 100 µM (inactive) | GI50 (COLO 205): > 100 µM (inactive) | GI50 (HL-60): > 100 µM (inactive) | GI50 (CCRF-CEM): > 100 µM (inactive) | GI50 (UO-31): > 100 µM (inactive) | GI50 (KM12): > 100 µM (inactive) | GI50 (OVCAR-3): > 100 µM (inactive) | GI50 (SNB-75): 99.3 µM (inactive) | GI50 (CAKI-1): > 100 µM (inactive) | GI50 (SK-MEL-5): > 100 µM (inactive) | GI50 (SK-OV-3): > 100 µM (inactive) | GI50 (K562): > 100 µM (inactive) | GI50 (LOX IMVI): > 100 µM (inactive) | GI50 (U-251): > 100 µM (inactive) | GI50 (A549): > 100 µM (inactive)

COc1ccc(CC2Cc3ccccc3CCN2)cc1OC (stereo not drawn)
GI50 (OVCAR-8): > 50 µM (inactive) | GI50 (SW-620): > 50 µM (inactive) | GI50 (HT-29): 13.8 µM (inactive) | GI50 (SNB-19): > 50 µM (inactive) | GI50 (COLO 205): 11.3 µM (inactive) | GI50 (HL-60): 13.2 µM (inactive) | GI50 (CCRF-CEM): 28.5 µM (inactive) | GI50 (UO-31): 11.8 µM (inactive) | GI50 (KM12): > 50 µM (inactive) | GI50 (OVCAR-3): > 50 µM (inactive) | GI50 (SNB-75): 31.1 µM (inactive) | GI50 (CAKI-1): > 50 µM (inactive) | GI50 (SK-OV-3): > 50 µM (inactive) | GI50 (K562): 20 µM (inactive) | GI50 (LOX IMVI): 38.5 µM (inactive) | GI50 (U-251): > 50 µM (inactive) | GI50 (A549): 29.8 µM (inactive)

CC(=O)C1C(=O)C(=O)N(c2ccc(Cl)c(Cl)c2)C1=O (stereo not drawn)
GI50 (OVCAR-8): > 100 µM (inactive) | GI50 (SW-620): > 100 µM (inactive) | GI50 (HT-29): > 100 µM (inactive) | GI50 (SNB-19): > 100 µM (inactive) | GI50 (COLO 205): > 100 µM (inactive) | GI50 (HL-60): > 100 µM (inactive) | GI50 (UO-31): 99.3 µM (inactive) | GI50 (KM12): > 100 µM (inactive) | GI50 (OVCAR-3): > 100 µM (inactive) | GI50 (SNB-75): > 100 µM (inactive) | GI50 (CAKI-1): > 100 µM (inactive) | GI50 (SK-MEL-5): > 100 µM (inactive) | GI50 (SK-OV-3): > 100 µM (inactive) | GI50 (LOX IMVI): > 100 µM (inactive) | GI50 (U-251): > 100 µM (inactive) | GI50 (A549): > 100 µM (inactive)

CC[C@@]1(N(C)C)C(=O)OCc2c1cc1n(c2=O)Cc2cc3ccccc3nc2-1
GI50 (OVCAR-8): 16.9 µM (inactive) | GI50 (SW-620): 32.1 µM (inactive) | GI50 (SNB-19): 29.4 µM (inactive) | GI50 (COLO 205): > 100 µM (inactive) | GI50 (CCRF-CEM): 18.5 µM (inactive) | GI50 (UO-31): 25.4 µM (inactive) | GI50 (KM12): > 100 µM (inactive) | GI50 (OVCAR-3): 27.8 µM (inactive) | GI50 (SNB-75): 12.8 µM (inactive) | GI50 (CAKI-1): > 10 µM (inactive) | GI50 (SK-MEL-5): 69.3 µM (inactive) | GI50 (SK-OV-3): 18.7 µM (inactive) | GI50 (K562): > 100 µM (inactive) | GI50 (LOX IMVI): 17.1 µM (inactive) | GI50 (NCI-H522): 12.7 µM (inactive) | GI50 (U-251): 29.2 µM (inactive) | GI50 (A549): 61 µM (inactive)
